Reference: patent US20120252853A1, “Positive allosteric modulators of nicotinic acetylcholine receptor” (H. Lundbeck A/S, priority 2011, published 2012)

Legend:
human α7 receptor = human α7 receptor (Homo sapiens, UniProt P36544); test: α7 NNR flux assay (FDSS Ca assay); assay type: cell-based; conditions: positive allosteric modulation; rat GH4C1 cell line stably expressing human α7; acetylcholine 20 μM; % modulation relative to PNU-120596 set to 100%
Procedure, shortened: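 GH4C1 rat cells stably expressing human α7, loaded with Calcium-4 dye plus 2.5 mM probenecid in HBSS/20 mM HEPES pH 7.4, 3 mM CaCl2. Compounds (0.039–20 μM final) preincubated ~95 s before 20 μM acetylcholine (~EC100); Ex480/Em540 fluorescence on FDSS. Values are % modulation, with 3 μM PNU-120596 set to 100%.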

human KCNQ2 = biological target: T1, human KCNQ2 (Homo sapiens, UniProt O43526); test: 86Rb flux in KCNQ2 expressing cells; assay type: cell-based; conditions: KCNQ2 opening; for EC50: 86Rb efflux, CHO-K1 cells stably transfected with human KCNQ2; for Emax: Max effect determined in % of the effect of 30 mM KCl
T1 construct: expressed in transfected cells
Description: Chinese hamster ovary cells (CHO-K1) were stably transfected with human KCNQ2 inserted into the pCl-neo vector (Promega). Cells were plated at 2×10^5 cells/ml in 96-well plates in 100 μl media (MEM Alpha media, 10% FBS, 1% P/S, 1% L-Glu, and 1 mg/ml G418). At the time of plating the cells were furthermore loaded with 1 μCi/ml 86Rb over-night. On the subsequent day, the cells were washed with 3×50 μl assay buffer (HBSS+10 mM HEPES, pH 7.4) and incubated in 50 μl buffer with retigabine for 30 minutes at 37° C. Following this preincubation, the cell membrane was depolarized for 30 minutes at 37° C. with 15 mM KCl (final concentration) in assay buffer supplemented with the appropriate amount of compound to maintain drug concentration. The supernatant was removed and placed in pony-vials with 0.5 ml scintillation liquid and counted. The dose-dependent effect of the investigated compounds on the efflux of 86Rb through the hKCNQ2 channels were calculated according to the four parameter logistic equation: Y=Bottom+(Top-Bottom)/(1+10̂((LogEC50-X)*HillSlope)), where X is the logarithm of concentration, Y is the response, and HillSlope is the hill coefficient.
A representative selection of compounds of the invention were tested in the assay in addition to 6 comparative examples wherein 0 has been substituted with a 6-membered ring comprising up to two N atoms. Comparative 1-4 has been disclosed in WO 2009/127678 or WO 2009/127679 and comparative 5-6 are close analogues.

[1] = tested on: α7 nACh receptors expressed in Xenopus oocytes; test: α7 NNR oocyte assay (electrophysiological recordings); assay type: cell-based, human or rat; conditions: tested subsequently in the oocyte assay
Description: Expression of α7 nACh Receptors in Xenopus oocytes.
Oocytes were surgically removed from mature female Xenepus laevis anaesthetized in 0.4% MS-222 for 10-15 min. The oocytes were then digested at room temperature for 2-3 hours with 0.5 mg/ml collagenase (type IA Sigma-Aldrich) in OR2 buffer (82.5 mM NaCl, 2.0 mM KCl, 1.0 mM MgCl2 and 5.0 mM HEPES, pH 7.6). Oocytes avoid of the follicle layer were selected and incubated for 24 hours in Modified Barth's Saline buffer (88 mM NaCl, 1 mM […], 15 mM HEPES, 2.4 mM NaHCO3, 0.41 mM CaCl2, 0.82 mM MgSO4, 0.3 mM Ca(NO3)2) supplemented with 2 mM sodium pyruvate, 0.1 μg/l penicillin and 0.1 μg/l streptomycin. Stage 1V oocytes were identified and injected with 4.2-48 nl of nuclease free water containing 0.1-1.2 ng of cRNA coding for human α7 nACh receptors or 3.0-32 ng of cRNA coding for rat α7 nACh receptors and incubated at 18° C. for 1-10 days when they were used for electrophysiological recordings.
Electrophysiological Recordings of α7 nACh Receptors Expressed in Oocytes.
Oocytes were used for electrophysiological recordings 1-10 days after injection. Oocytes were placed in a 1 ml bath and perfused with Ringer buffer (115 mM NaCl, 2.5 mM KCl, 10 mM HEPES, 1.8 mM CaCl2, 0.1 mM MgCl2, pH 7.5). Cells were impaled with agar plugged 0.2-1 MΩ electrodes containing 3 M KCl and voltage clamped at −90 mV by a GeneClamp 500B amplifier. The experiments were performed at room temperature. Oocytes were continuously perfused with Ringer buffer and the drugs were applied in the perfusate. ACh (30 μM) applied for 30 sec were used as the standard agonist for activation of the α7 nACh receptors. In the standard screening set-up the new test compound (10 μM or 30 μM) were applied for 1 min of pre-application allowing for evaluation of agonistic activity followed by 30 sec of co-application with ACh (30 μM) allowing for evaluation of PAM activity. […] The drug induced effects on both the peak response and the total charge (AUC) response were calculated thus giving the effect of drug induced PAM activity as fold modulation of the control response. […]

Sequence of human α7 receptor (P36544 23-502): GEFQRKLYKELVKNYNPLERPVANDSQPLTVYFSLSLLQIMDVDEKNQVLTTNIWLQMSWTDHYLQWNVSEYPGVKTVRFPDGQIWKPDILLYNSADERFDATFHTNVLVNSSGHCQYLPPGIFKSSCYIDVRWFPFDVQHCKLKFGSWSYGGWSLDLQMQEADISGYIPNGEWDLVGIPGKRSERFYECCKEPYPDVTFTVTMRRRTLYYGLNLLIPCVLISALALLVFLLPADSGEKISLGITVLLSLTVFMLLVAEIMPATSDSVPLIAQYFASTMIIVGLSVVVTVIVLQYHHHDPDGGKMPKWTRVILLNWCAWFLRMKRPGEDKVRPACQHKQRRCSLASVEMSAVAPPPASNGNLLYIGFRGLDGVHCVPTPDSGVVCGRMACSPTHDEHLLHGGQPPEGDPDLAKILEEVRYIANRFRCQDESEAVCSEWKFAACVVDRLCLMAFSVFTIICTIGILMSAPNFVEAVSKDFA

SMILES	EC50 (human α7 receptor)	EC50 (human KCNQ2)	Emax (human KCNQ2)	NNR PAM activity in the oocyte assay compared with the flux assay [1]
Cc1cc(C(=O)NC(C)c2ccc3[nH]c(C(F)(F)F)cc3c2)on1 (single isomer, unassigned) [Compound 96, 3-methyl-N-[1-[2-(trifluoromethyl)-1H-indol-5-yl]ethyl]isoxazole-5-carboxamide]	4.2 µM	> 50 µM	5.4%	
Cc1cc2cc(CNC(=O)c3occc3C)ccc2[nH]1 [Compound 1, 3-methyl-N-[(2-methyl-1H-indol-5-yl)methyl]furan-2-carboxamide]	2.7 µM	> 50 µM	2%	
Cc1cc2cc(CNC(=O)c3ccc(C)s3)ccc2[nH]1 [Compound 24, 5-methyl-N-[(2-methyl-1H-indol-5-yl)methyl]thiophene-2-carboxamide]	0.34 µM	> 50 µM	5%	
Cc1cc(C(=O)NCc2ccc3[nH]c(C)cc3c2)on1 [Compound 28, 3-methyl-N-[(2-methyl-1H-indol-5-yl)methyl]isoxazole-5-carboxamide]	2.97 µM		5.7%	
Cc1cc2cc(CNC(=O)c3cnn(C)c3)ccc2[nH]1 [Compound 29, 1-methyl-N-[(2-methyl-1H-indol-5-yl)methyl]pyrazole-4-carboxamide]	9.25 µM	> 50 µM	4%	
Cn1cc(C(=O)NCc2ccc3[nH]c(C(F)(F)F)cc3c2)cn1 [Compound 30, 1-methyl-N-[[2-(trifluoromethyl)-1H-indol-5-yl]methyl]pyrazole-4-carboxamide]	5.8 µM	> 50 µM	9.6%	
O=C(NCc1ccc2[nH]c(C(F)(F)F)cc2c1)c1ccno1 [Compound 31, N-[[2-(trifluoromethyl)-1H-indol-5-yl]methyl]isoxazole-5-carboxamide]		> 50 µM	4.8%	
Cc1cc2cc(CNC(=O)c3cc(C(C)C)no3)ccc2[nH]1 [Compound 34, 3-isopropyl-N-[(2-methyl-1H-indol-5-yl)methyl]isoxazole-5-carboxamide]	0.9 µM		1%	significantly better NNR PAM activity
Cc1cc2cc(CNC(=O)c3cnc(C)s3)ccc2[nH]1 [Compound 35, 2-methyl-N-[(2-methyl-1H-indol-5-yl)methyl]thiazole-5-carboxamide]	2.45 µM		7.5%	
Cc1cc2cc(CNC(=O)c3cnn(CC(F)(F)F)c3)ccc2[nH]1 [Compound 36, N-[(2-methyl-1H-indol-5-yl)methyl]-1-(2,2,2-trifluoroethyl)pyrazole-4-carboxamide]	1.49 µM		3.3%	
O=C(NCc1ccc2[nH]c(C(F)(F)F)cc2c1)c1cnn(CC(F)(F)F)c1 [Compound 40, 1-(2,2,2-trifluoroethyl)-N-[[2-(trifluoromethyl)-1H-indol-5-yl]methyl]pyrazole-4-carboxamide]	3.5 µM	> 50 µM	2.4%	
Cc1cc(C(=O)N[C@H](C)c2ccc3[nH]c(C)cc3c2)sn1 [Compound 47, 3-methyl-N-[(1R)-1-(2-methyl-1H-indol-5-yl)ethyl]isothiazole-5-carboxamide]	> 20 µM			significantly better NNR PAM activity
Cc1cc(C(=O)N[C@H](C)c2ccc3[nH]c(C)cc3c2)on1 [Compound 61, 3-methyl-N-[(1R)-1-(2-methyl-1H-indol-5-yl)ethyl]isoxazole-5-carboxamide]	2.33 µM		-5%	
Cc1cc(C(=O)NCc2ccc3[nH]c(C(F)(F)F)cc3c2)on1 [Compound 65, 3-methyl-N-[[2-(trifluromethyl)-1H-indol-5-yl]methyl]isoxazole-5-carboxamide]	5 µM		8.1%	
Cc1ncc(C(=O)NCc2ccc3[nH]c(C(F)(F)F)cc3c2)s1 [Compound 66, 2-methyl-N-[[2-(trifluoromethyl)-1H-indol-5-yl]methyl]thiazole-5-carboxamide]	8.8 µM	> 50 µM	3.7%	
CC(C)c1cc(C(=O)NCc2ccc3[nH]c(C(F)(F)F)cc3c2)on1 [Compound 67, 3-isopropyl-N-[[2-(trifluoromethyl)-1H-indol-5-yl]methyl]isoxazole-5-carboxamide]	6.1 µM	> 50 µM	5.3%	
Cc1cc2cc([C@@H](C)NC(=O)c3cnn(CC(F)(F)F)c3)ccc2[nH]1 [Compound 86, N-[(1R)-1-(2-methyl-1H-indol-5-yl)ethyl]-1-(2,2,2-trifluoroethyl)pyrazole-4-carboxamide]	> 20 µM			significantly better NNR PAM activity

Next, values leading:

EC50 (human α7 receptor)	EC50 (human KCNQ2)	Emax (human KCNQ2)	NNR PAM activity in the oocyte assay compared with the flux assay [1]	SMILES
	> 50 µM	34%		O=C(NCc1ccc2[nH]c(C(F)(F)F)cc2c1)c1ncc(C(F)(F)F)cn1 [Compound C1, 5-Trifluoromethyl-pyrimidine-2-carboxylic acid (2-trifluoromethyl-1H-indol-5-ylmethyl)amide, reference compound]
	> 50 µM	31%		O=C(NCc1ccc2[nH]c(C(F)(F)F)cc2c1)c1ccc(-c2ccccc2)nc1 [Compound C2, 6-Phenyl-N-(2-trifluoromethyl-1H-indol-5-ylmethyl)-nicotinamide, reference compound]
	17 µM	46%		O=C(NCc1ccc2[nH]c(C(F)(F)F)cc2c1)c1ccc(C(F)(F)F)nc1 [Compound C3, 6-Trifluoromethyl-N-(2-trifluoromethyl-1H-indol-5-ylmethyl)-nicotinamide, reference compound]
	> 50 µM	15%		N#Cc1ccc(C(=O)NCc2ccc3[nH]c(C(F)(F)F)cc3c2)cn1 [Compound C4, 6-Cyano-N-(2-trifluoromethyl-1H-indol-5-ylmethyl)-nicotinamide, reference compound]
	> 50 µM	17%		COc1ccc(C(=O)NCc2ccc3[nH]c(C)cc3c2)cc1 [Compound C5, 4-Methoxy-N-(2-methyl-1H-indol-5-ylmethyl)-benzamide, reference compound]
	> 50 µM	13%		Cc1cc2cc(CNC(=O)c3ccccc3F)ccc2n1C [Compound C6, N-(1,2-Dimethyl-1H-indol-5-ylmethyl)-2-fluoro-benzamide, reference compound]
